System: not listed separately
Experiment: Human liver S9 fraction stability assay
Type: in vitro ADME
Details: pH 7.4, human liver S9, 1 μM test compound, 2 mg/mL protein, 1 mM NADPH, 37° C., read-out: Liver S9 fraction stability, t1/2
Experimental: Compounds can be assessed for metabolic stability in human skin by assessing their rate of disappearance from human S9 skin fraction. Similarly, compounds can be assessed for metabolic stability in human liver by assessing their rate of disappearance from human S9 liver fraction. The protocol below is used to assess the difference between skin and hepatic metabolism.
The assay was carried out in 96-well microtiter plates at 37° C. Reaction mixtures (25 μL) contained a final concentration of 1 μM test compound, 2 mg/mL liver or skin protein, and 1 mM NADPH in buffer (100 mM potassium phosphate, pH 7.4 buffer with 1 mM EDTA, 3 mM MgCl2). At each of the time points (0, 15, 30, and 60 minutes), 150 μL of quench solution (100% acetonitrile with 0.1% formic acid) with internal standard was transferred to each well. Besides the zero minute controls, mixtures containing the same components except the NADPH were also prepared as the negative control. Verapamil or testosterone was included as a positive control to verify assay performance. Plates were sealed and centrifuged at 4° C. for 15 minutes at 4000 rpm. The supernatant was transferred to fresh plates for LC/MS/MS analysis.
All samples were analyzed on LC/MS/MS using an AB Sciex API 4000 instrument, coupled to a Shimadzu LC-20AD LC Pump system. Analytical samples were separated using a Waters Atlantis T3 dC18 reverse phase HPLC column (20 mm×2.1 mm) at a flow rate of 0.5 mL/min. The mobile phase consisted of 0.1% formic acid in water (solvent A) and 0.1% formic acid in 100% acetonitrile (solvent B).
The extent of metabolism was calculated as the disappearance of the test compound, compared to the 0-min control reaction incubations. Initial rates were calculated for the compound concentration and used to determine t1/2 values and subsequently, the intrinsic clearance, CLint=(0.693) (1/t1/2 (min)) (mL incubation/mg of S9 protein).
Table 4 lists t1/2 values for the above liver S9 stability assay. […]

`O=c1c2c(Nc3ccc(I)cc3F)cncc2ccn1OCCO` [Compound 1.007, 8-(2-Fluoro-4-iodophenylamino)-2-(2-hydroxyethoxy)-2,6-naphthyridin-1(2H)-one] and `O=C1c2c(cncc2Nc2ccc(I)cc2F)CCN1OCCO` [Compound 1.010, 8-(2-Fluoro-4-iodophenylamino)-2-(2-hydroxyethoxy)-3,4-dihydro-2,6-naphthyridin-1(2H)-one] fall in the same range of half-life at 1 μM: 50 to 200 min for the first, 50 to 200 min for the second.

In the case of `O=C1NCCc2cncc(Nc3ccc(I)cc3F)c21` [Compound 1.012, 8-((2-Fluoro-4-iodophenyl)amino)-3,4-dihydro-2,6-naphthyridin-1(2H)-one], the half-life at 1 μM is reported as no more than 50 min.

Molecular target: MEK1 (Homo sapiens (Human), UniProt Q02750)
Sequence (Q02750 whole entry): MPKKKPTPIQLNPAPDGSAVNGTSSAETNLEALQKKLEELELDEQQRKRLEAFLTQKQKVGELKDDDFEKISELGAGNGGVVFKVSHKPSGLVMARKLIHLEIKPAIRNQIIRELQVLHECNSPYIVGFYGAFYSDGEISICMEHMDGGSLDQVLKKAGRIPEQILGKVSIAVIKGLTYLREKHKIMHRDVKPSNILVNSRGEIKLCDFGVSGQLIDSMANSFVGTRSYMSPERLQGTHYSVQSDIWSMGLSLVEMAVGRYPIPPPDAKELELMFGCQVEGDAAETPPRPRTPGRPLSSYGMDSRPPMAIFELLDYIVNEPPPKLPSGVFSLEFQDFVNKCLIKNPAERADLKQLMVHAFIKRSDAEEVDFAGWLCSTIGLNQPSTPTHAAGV
Experiment: MEK1 inhibition assay (Z'-LYTE biochemical assay)
Details: MAP2K1 (MEK1)/inactive MAPK1 (ERK2)/Ser/Thr 03 cascade, 10 point titration; read-out: IC50 against MEK1
Experimental: MEK1 inhibitory activity of compounds were tested using the following procedure (protocol available at thermofisher.com/content/dam/LifeTech/migration/files/drug-discovery/pdfs.par.60256.file.dat/20130430%20ssbk%20customer%20protocol%20and%20assay%20conditions.pdf). The Z′-LYTE biochemical assay (ThermoFisher) employs a fluorescence-based, coupled-enzyme format and is based on the differential sensitivity of phosphorylated and non-phosphorylated peptides to proteolytic cleavage.
Test compounds in 100% DMSO were screened in 1% DMSO (final) in the well. For 10 point titrations, 3-fold serial dilutions are conducted from the starting concentration of 30 μM.
After the 1 hour incubation, 5 μL of a 1:1024 dilution of Development Reagent A (available from Invitrogen, catalog no. PV3295) was added.
ATP solutions were diluted to a 4× working concentration in Kinase Buffer (50 mM HEPES pH 7.5, 0.01% BRIJ-35, 10 mM MgCl2, 1 mM EGTA). ATP Km apparent was previously determined using a Z′-LYTE assay. The Development Reagent was diluted in Development Buffer (available from Invitrogen, catalog no. P3127).
Assay Protocol: 2.5 μL of 4× test compound or 100 nL of 100× Test Compound plus 2.4 μL Kinase Buffer, 5 μL of the 2× Peptide/Kinase Mixture, 2.5 μL of 4×ATP Solution were added to the plates and placed on a shake plate for 30-seconds. The kinase reaction was allowed to proceed for 60-minute at room temperature, before 5 μL of Development Reagent Solution was added, and the mixture agitated for 30-seconds on a shake plate. The mixture was incubated for 60-minute at room temperature. Fluorescence was measured using a plate reader and the data were analyzed.
This control yielded 100% cleaved peptide in the Development Reaction. The 100% Phosphorylation Control, which consisted of a synthetically phosphorylated peptide of the same sequence as the peptide substrate, was designed to allow for the calculation of percent phosphorylation. This control yielded a very low percentage of cleaved peptide in the Development Reaction. The 0% Phosphorylation and 100% Phosphorylation Controls allow for the calculation of the percent phosphorylation achieved in a specific reaction well.
The minimum emission ratio in a screen was established by the 0% Inhibition Control, which contained active kinase. This control was designed to produce a 10-50% phosphorylated peptide in the Kinase Reaction. […]
A known inhibitor control standard curve, 10 point titration, was run for each individual kinase on the same plate as the kinase to ensure the kinase was inhibited within an expected IC50 range previously determined.
The following controls are prepared for each concentration of Test Compound assayed. […] The expected value for a non-fluorescence compound should be 0%. […]
The data in Table A was calculated. […]

`O=c1c2c(Nc3ccc(I)cc3F)cncc2ccn1C[C@@H](O)CO` [Compound 1.001, (R)-2-(2,3-Dihydroxypropyl)-8-(2-fluoro-4-iodophenylamino)-2,6-naphthyridin-1(2H)-one] and `O=c1c2c(Nc3ccc(I)cc3F)cncc2ccn1C[C@H](O)CO` [Compound 1.002, (S)-2-(2,3-Dihydroxypropyl)-8-(2-fluoro-4-iodophenylamino)-2,6-naphthyridin-1(2H)-one] cannot be ordered by IC50: no more than 150 nM for the first, no more than 150 nM for the second.

`O=C(O)Cn1ccc2cncc(Nc3ccc(I)cc3F)c2c1=O` [Compound 1.004, 2-(8-(2-Fluoro-4-iodophenylamino)-1-oxo-2,6-naphthyridin-2(1H)-yl)acetic acid] and `COC(=O)Cn1ccc2cncc(Nc3ccc(I)cc3F)c2c1=O` [Compound 1.005, Methyl 2-(8-(2-fluoro-4-iodophenylamino)-1-oxo-2,6-naphthyridin-2(1H)-yl)acetate] cannot be ordered by IC50: greater than 1500 nM for the first, greater than 1500 nM for the second.
